Data as given in US10308620B2, “Muscarinic M1 receptor positive allosteric modulators” (SUVEN LIFE SCIENCES LIMITED, priority 2015, dated 2019).

What was measured:
[1] = Rodent brain penetration study; format: in vivo; details: rat, oral, 3 mg/kg, p.o., male Wistar rats, read-out: Single dose Rat Brain Penetration (Cb/Cp)
Procedure: Rodent Brain Penetration Study
Male Wistar rats (260±40 grams) were used as experimental animals. Three animals were housed in each cage. Animals were given water and food ad libitum throughout the experiment and maintained on a 12 hours light/dark cycle.
Brain penetration was determined in discrete manner in rats. One day prior to dosing day, male Wistar rats were acclimatized and randomly grouped according to their weight. At each time point (0.50, 1 and 2 hours) n=3 animals were used.
The test compounds were suitably preformulated and administered orally at (free base equivalent) 3 mg/kg. Blood samples were removed via cardiac puncture by using isoflurane anesthesia. The animals were sacrificed to collect brain tissue. Plasma was separated and brain samples were homogenized and stored frozen at −20° C. until analysis. The concentrations of the test compounds in plasma and brain were determined using LC-MS/MS method.
The test compounds were quantified in plasma and brain homogenate by qualified LC-MS/MS method using suitable extraction technique. The test compounds were quantified in the calibration range of 1-500 ng/mL in plasma and brain homogenate. Study samples were analyzed using calibration samples in the batch and quality control samples spread across the batch. Extent of brain-plasma ratio was calculated (Cb/Cp).

[2] = target: recombinant human Muscarinic M1 receptor (Homo sapiens (Human), UniProt P11229); assay: Allosteric potency EC50, CHO cells with pCRE-Luc reporter, in presence of EC20 of acetylcholine; format: cell-based; details: 4 hours
Procedure: Determination of Allosteric Potency EC50 Values for Muscarinic M1 Receptor:
A stable CHO cell line expressing recombinant human Muscarinic M1 receptor and pCRE-Luc reporter system was used for cell-based assay. The assay offers a non-radioactive based approach to determine binding of a compound to GPCRs. In this specific assay, the level of intracellular cyclic AMP which is modulated by activation or inhibition of the receptor is measured. The recombinant cells harbor luciferase reporter gene under the control of cAMP response element.
The above cells were grown in 96 well clear bottom white plates in Hams F12 medium containing 10% fetal bovine serum (FBS). Prior to the addition of compounds or standard agonist, cells were serum starved overnight. Increasing concentrations of test compounds were added along with EC20 of acetylcholine in OptiMEM medium to the cells. The incubation was continued at 37° C. in CO2 incubator for 4 hours. Medium was removed and cells were washed with phosphate buffered saline. The cells were lysed and luciferase activity was measured in a Luminometer. Luminescence units were plotted against the compound concentrations using Graphpad software. EC50 values of the compounds were defined as the concentration required in stimulating the luciferase activity by 50% in presence of EC20 of acetylcholine.

[3] = Rodent pharmacokinetic study; format: in vivo, rat; details: male Wistar rats; for clearance / half-life / Vd / Cmax / Tmax / bioavailability: rat, plasma; for Vd: read-out: Vz; for bioavailability: 3 mg/kg oral vs 1 mg/kg i.v.
Procedure: Rodent Pharmacokinetic Study
Male Wistar rats (260±50 grams) were used as experimental animals. Animals were housed individually in polypropylene cage. Two days prior to study, male Wistar rats were anesthetized with isoflurane for surgical placement of jugular vein catheter. Rats were randomly divided for oral (3 mg/kg) and intravenous (1 mg/kg) dosing (n=3/group) and fasted overnight before oral dosing (p.o.). However, rats allocated to intravenous (i.v.) dosing food and water was provided ad libitum.
At pre-determined point, blood was collected through jugular vein and replenished with an equivalent volume of normal saline. Collected blood was transferred into a labeled eppendorf tube containing 10 μL of heparin as an anticoagulant. Typically blood samples were collected at following time points: 0.08, 0.25, 0.5, 1, 2, 4, 6, 8, and 24 hours post dose. Blood was centrifuged at 4000 rpm for 10 minutes. Plasma was separated and stored frozen at −80° C. until analysis. The concentrations of the test compounds were quantified in plasma by qualified LC-MS/MS method using suitable extraction technique. The test compounds were quantified in the calibration range around 1-1000 ng/mL in plasma. Study samples were analyzed using calibration samples in the batch and quality control samples spread across the batch.
Pharmacokinetic parameters Cmax, Tmax, AUCt, T1/2, clearance, Vz and bioavailability were calculated by non-compartmental model using standard non-compartmental model by using Phoenix WinNonlin 6.0.2 or 6.0.3 version Software package.

[4] = test system: Male Wistar rats; assay: Object recognition task model (time induced memory deficit); format: in vivo, rat; details: p.o.; for Exploration time mean ± S.E.M, Familiar object / Exploration time mean ± S.E.M, Novel object: choice trial 24 hours after T1
Procedure: Object Recognition Task Model
The cognition enhancing properties of compounds of this invention were estimated by using this model.
Male Wistar rats (8-10 weeks old) were used as experimental animals. Four animals were housed in each cage. Animals were kept on 20% food deprivation from a day prior to experimentation. Water was provided ad libitum throughout the experiment. Animals were maintained on a 12 hours light/dark cycle in temperature and humidity controlled room. The experiment was carried out in an open field made up of acrylic. Rats were habituated to individual arenas (open field) for 1 hour in the absence of any objects on day 1.
One group of 12 rats received vehicle and another set of animals received test compounds or test compounds and Donepezil, before the familiar (T1) and choice (T2) trials. During the familiarization phase, (T1), the rats were placed individually in the arena for 3 minutes, in which two identical objects (a1 and a2) were positioned 10 cm from the wall. 24 hours after T1, trial for long-term memory test was performed. The same rats were placed in the same arena as they were placed in T1 trial. During the choice phase (T2) rats were allowed to explore the arena for 3 minutes in presence of a copy of familiar object (a3) and one novel object (b). During the T1 and T2 trial, explorations of each object (defined as sniffing, licking, chewing or having moving vibrissae whilst directing the nose towards the object at a distance of less than 1 cm) were recorded using stopwatch.
T1 is the total time spent exploring the familiar objects (a1+a2).
T2 is the total time spent exploring the familiar object and novel object (a3+b). Discriminative index=Time spent with novel object/(time spent with novel and familiar object).
The object recognition test was performed as described in Behavioural Brain Research, 1988, 31, 47-59.

Sequence of recombinant human Muscarinic M1 receptor (P11229 whole entry): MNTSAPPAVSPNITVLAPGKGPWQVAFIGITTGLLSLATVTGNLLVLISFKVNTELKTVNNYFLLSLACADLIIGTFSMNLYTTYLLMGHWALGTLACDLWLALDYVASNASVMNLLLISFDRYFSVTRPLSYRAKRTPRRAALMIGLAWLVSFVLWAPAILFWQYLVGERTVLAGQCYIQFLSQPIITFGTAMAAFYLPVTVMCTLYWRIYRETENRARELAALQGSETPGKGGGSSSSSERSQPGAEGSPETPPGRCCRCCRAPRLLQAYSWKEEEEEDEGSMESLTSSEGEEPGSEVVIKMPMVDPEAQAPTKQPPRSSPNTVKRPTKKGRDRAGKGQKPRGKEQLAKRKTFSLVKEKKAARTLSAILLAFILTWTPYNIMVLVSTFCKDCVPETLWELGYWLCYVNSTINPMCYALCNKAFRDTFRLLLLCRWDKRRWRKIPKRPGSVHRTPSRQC

SMILES	Kp [1]	EC50 [2] [nM]	AUC0-t ([3]; 1 mg/kg i.v. (bolus)) [ng·h/mL]	AUC0-t ([3]; 3 mg/kg oral (gavage)) [ng·h/mL]	clearance ([3]; iv, 1 mg/kg i.v. (bolus)) [mL/min/kg]	half-life ([3]; iv, 1 mg/kg i.v. (bolus)) [min]	Vd ([3]; iv, 1 mg/kg i.v. (bolus)) [L/kg]	Cmax ([3]; 3 mg/kg oral (gavage)) [ng/mL]	Tmax ([3]; 3 mg/kg oral (gavage)) [h]	half-life ([3]; 3 mg/kg oral (gavage)) [min]	bioavailability [3] [%]	Inference ([4]; 1 mg/kg)	Exploration time mean ± S.E.M, Familiar object ([4]; 1 mg/kg) [s]	Exploration time mean ± S.E.M, Novel object ([4]; 1 mg/kg) [s]	Inference ([4]; 3 mg/kg)	Exploration time mean ± S.E.M, Familiar object ([4]; 3 mg/kg) [s]	Exploration time mean ± S.E.M, Novel object ([4]; 3 mg/kg) [s]	Inference ([4]; 10 mg/kg)	Exploration time mean ± S.E.M, Familiar object ([4]; 10 mg/kg) [s]	Exploration time mean ± S.E.M, Novel object ([4]; 10 mg/kg) [s]
O=C(N[C@H]1CCCC[C@@H]1O)C1=CN(Cc2cccc(C(F)(F)F)c2)c2ccccc2O1 [Example 17, N-(cis-1S, 2S-2-Hydroxycyclohexyl)-4-(3-trifluoromethylbenzyl)-4H-benzo[1,4]oxazine-2-carboxamide]	1.92 ± 0.24	149	600 ± 74	467 ± 169	27 ± 3	552 ± 132	22 ± 8	91 ± 38	4	156 ± 12	26 ± 9									
O=C(N[C@H]1CCCC[C@@H]1O)C1=CN(Cc2ccc(F)c(F)c2)c2ccccc2O1 [Example 19, N-(cis-1S,2S-2-Hydroxycyclohexyl)-4-(3,4-difluorobenzyl)-4H-benzo[1,4]oxazine-2-carboxamide]		120	1240 ± 84	2490 ± 223	13 ± 1	228 ± 30	4.4 ± 0.2	252 ± 17	1.67 ± 0.6	222 ± 6	67 ± 6									
COc1cccc(CN2C=C(C(=O)N[C@H]3CCCC[C@@H]3O)Oc3ccccc32)c1 [Example 9, N-(cis-1S, 2S-2-Hydroxycyclohexyl)-4-(3-methoxybenzyl)-4H-benzo[1,4]oxazine-2-carboxamide]	0.65 ± 0.2	699	711 ± 137	1180 ± 245	24 ± 4	252 ± 132	8.3 ± 4.1	320 ± 68	1.33 ± 0.58	174 ± 78	55 ± 11	Active	8.64 ± 0.82	18.55 ± 1.70						
O=C(N[C@H]1CCCC[C@@H]1O)C1=CN(Cc2cccc(F)c2)c2ccccc2O1 [Example 7, N-(cis-1S, 2S-2-Hydroxycyclohexyl)-4-(3-fluorobenzyl)-4H-benzo[1,4]oxazine-2-carboxamide]	1.04 ± 0.16	891	553 ± 42	652 ± 227	29 ± 2	102 ± 18	4.3 ± 0.9	313 ± 111	0.5	108 ± 18	39 ± 14				Active	9.23 ± 1.53	13.92 ± 1.99			
O=C(N[C@H]1CCCC[C@@H]1O)C1=CN(Cc2ccc(Cl)nc2)c2ccccc2O1 [Example 21, N-(cis-1S,2S-2-Hydroxycyclohexyl)-4-(2-chloropyridin-5-ylmethyl)-4H-benzo[1,4]oxazine-2-carboxamide]	0.25 ± 0.08	369	1490 ± 149	4270 ± 800	11 ± 1	102 ± 18	1.5 ± 0.1	992 ± 150	0.67 ± 0.29	162 ± 18	95 ± 18	Active	9.18 ± 1.63	17.67 ± 2.89						
O=C(N[C@H]1CCCC[C@@H]1O)C1=CN(Cc2cccc(F)c2F)c2ncccc2O1 [Example 33, N-(cis-1S,2S-2-Hydroxycyclohexyl)-4-(2,3-difluorobenzyl)-4H-pyrido[3,2-b][1,4]oxazine-2-carboxamide]	1.96 ± 0.91	1180	452 ± 135	719 ± 269	39 ± 10	72 ± 36	3.5 ± 1	159 ± 26	1.5 ± 0.9	192 ± 120	53 ± 20									
COc1ccc(CN2C=C(C(=O)N[C@H]3CCCC[C@@H]3O)Oc3ccccc32)cc1 [Example 5, N-(cis-1S, 2S-2-Hydroxycyclohexyl)-4-(4-methoxybenzyl)-4H-benzo[1,4]oxazine-2-carboxamide]	0.9 ± 0.15	135	1150 ± 62	3980 ± 533	14 ± 1	270 ± 12	5.6 ± 0.5	430 ± 35	2.83 ± 2.02	234 ± 6	115 ± 15									
O=C(NC1CCOCC1O)C1=CN(Cc2cccc(F)c2F)c2ccccc2O1 (stereo not drawn) [Example 20, N-(3-Hydroxytetrahydrpyran-4-yl)-4-(2,3-difluorobenzyl)-4H-benzo[1,4]oxazine-2-carboxamide]	0.82 ± 0.25	1250																Active	12.17 ± 1.84	19.94 ± 3.02
O=C(N[C@H]1CCCC[C@@H]1O)C1=CN(Cc2cccc(F)c2)c2cccc(F)c2O1 [Example 51, N-(cis-1S,2S-2-Hydroxycyclohexyl)-4-{3-fluorobenzyl}-8-fluoro-4H-benzo[1,4]oxazine-2-carboxamide]	1.93 ± 0.37	420	533 ± 62	371 ± 149	31 ± 4	216 ± 180	9.8 ± 8	132 ± 32	1	138 ± 30	23 ± 9									
O=C(N[C@H]1CCCC[C@@H]1O)C1=CN(Cc2ccccn2)c2ccccc2S1 [Example 92, N-(cis-1S,2S-2-Hydroxycyclohexyl)-4-{pyridin-2-ylmethyl}-4H-benzo[1,4]thiazine-2-carboxamide]		1470	262 ± 50	255 ± 32	64 ± 11	48 ± 12	4.2 ± 0.7	195 ± 22	0.33 ± 0.14	102 ± 60	32 ± 4									
